Here are results for four molecules from patent publication US20060183105A1, “Human brain-derived tissue-specific potassium channel” (priority 1997, published 2006).

The test system of one assay is SN56 cells. Conditions: attenuation of the potassium current; cited from earlier work.
The test system of assay [1] is mouse neocortical neurons. The conditions noted are these: cited from earlier work; for induction of apoptosis on exposure: neurons, exposure to the K+ ionophore or K+-channel opener.
The target in the next assay is hKQT2 and hKQT3 (Homo sapiens, UniProt O43525+O43526). The conditions noted are these: co-expression in oocytes, current mimics native M-currents; cited from earlier work.
For assay [2], the target named is T1, human brain-derived potassium channel subunit SEQ ID NO:3 (hKvQT2) (Homo sapiens, UniProt O43526, N780T).
T1 construct: EGFP (Enhanced Green Fluorescent Protein), from pEGFPC1; expressed in transfected cells; host or cells: COS-7 and HEK 293 cells, transient transfection
The assay can be described thus: cell-based. The protocol: transfection: HEK293 cells (ATCC, Rockville, Md.) were transfected as follows: 70 ul LipoTAXI (Stratagene, La Jolla, Calif.) was added to a polystyrene tube and gently mixed. Two (2) ug pEFGPC1 (control vector used to trace the transfected cells) and 5 ug of one of the constructs (SEQ ID NO:2 in pcDNA3 or SEQ ID NO:4 in pcDNA3) was added to the lipid/media mixture and incubated for 20 minutes. Two (2)mls of OPTI-MEM I was then added and mixed gently. Cells to be transfected were washed once with OPTI-MEM I, and the 3 ml of lipid-DNA mixture were added to the washed cells and incubated at 37° C. 5% CO2 for 4-6 hours. Cells were then refed with 10% Heat Inactivated FBS (Biowhittaker, Walkersville, Md.) DMEM (Mediatech 10-017-CV). For co-expression experiments, 2 ug pEGFPC1(control vector), 5 ug of pcDNA3QT2L ((SEQ ID NO:2 in pcDNA3) and 20 ug pcDNA3QT2S (SEQ ID NO:4 in pcDNA3) were used in this protocol. Cells were diluted and replated onto 35 mm dishes 24-48 hours prior to patch clamping.
COS-7 cells (ATCC, Rockville Md.) were transfected as follows: 25 ul DMRIE-C Reagent (Gibco BRL/Life Technologies, Gaithersburg, Md.) were added to 2 ml of OPTI-MEM I (Gibco BRL/Life Technologies, Gaithersburg, Md.), mixed gently and incubated for 20 minuets. Two (2) ug pEGPPC1QT2L (EGFP fused to the N-terminus of SEQ ID NO:2) and 7.3 ug pcDNA3 or 9.3 ug pcDNA3QT2S (SEQ ID NO:4 in pcDNA3) (for a 5 molar excess over hKvQT2L (SEQ ID NO:2) construct) were added to lipid/media mixture, mixed gently and incubated for 20 minutes. Two (2) mls of OPTI-MEM I was then added to this and mixed gently. Cells to be transfected were washed once with OPTI-MEM I, and the 4 ml of lipid-DNA mixture were added to the washed cells and incubated at 37° C. 5% CO2 for 4-6 hours. Cells were then refed with 10% Heat Inactivated FBS (Biowhittaker, Walkersville, Md.) DMEM (Mediatech 10-017-CV). Cells were trypsinized, diluted and replated onto 35 mm dishes 24-48 hours prior to patch clamping.
electrophysiology: All recordings were obtained using the conventional whole cell configuration (Hammill, O. P., et al., Pfluger Arch., 391, 85-100, 1981). Cells were transfected with 5 ug pcDNA3 or 2 ug pEGFPQT2L (EGFP fused to the N-terminus of SEQ ID NO:2) 24-48 hours prior to experiments. Extracellular solution was (mM): 160 NaCl, 4.5 KCl, 1 MgC2, 2 CaCl2, 5 HEPES, 5 glucose (pH: 7.4 by NaOH, ˜325 mOsm). In K+ selectivity experiments, equimolar Na^+ was substituted by K^+. Pipette solution was (mM): 150 K-aspartate, 2 MgCl2, 1 CaCl2, 5 HEPES, 1.6 EGTA (pH: 7.2 by KOH, ˜305 mOsm). Voltage protocols were implemented and data acquired using pClamp 6.0 software (Axon Instr., CA). Solution changes and drug application with a local perfusion system.

T1 sequence (O43526 1-854 isoform O43526-2 N762T): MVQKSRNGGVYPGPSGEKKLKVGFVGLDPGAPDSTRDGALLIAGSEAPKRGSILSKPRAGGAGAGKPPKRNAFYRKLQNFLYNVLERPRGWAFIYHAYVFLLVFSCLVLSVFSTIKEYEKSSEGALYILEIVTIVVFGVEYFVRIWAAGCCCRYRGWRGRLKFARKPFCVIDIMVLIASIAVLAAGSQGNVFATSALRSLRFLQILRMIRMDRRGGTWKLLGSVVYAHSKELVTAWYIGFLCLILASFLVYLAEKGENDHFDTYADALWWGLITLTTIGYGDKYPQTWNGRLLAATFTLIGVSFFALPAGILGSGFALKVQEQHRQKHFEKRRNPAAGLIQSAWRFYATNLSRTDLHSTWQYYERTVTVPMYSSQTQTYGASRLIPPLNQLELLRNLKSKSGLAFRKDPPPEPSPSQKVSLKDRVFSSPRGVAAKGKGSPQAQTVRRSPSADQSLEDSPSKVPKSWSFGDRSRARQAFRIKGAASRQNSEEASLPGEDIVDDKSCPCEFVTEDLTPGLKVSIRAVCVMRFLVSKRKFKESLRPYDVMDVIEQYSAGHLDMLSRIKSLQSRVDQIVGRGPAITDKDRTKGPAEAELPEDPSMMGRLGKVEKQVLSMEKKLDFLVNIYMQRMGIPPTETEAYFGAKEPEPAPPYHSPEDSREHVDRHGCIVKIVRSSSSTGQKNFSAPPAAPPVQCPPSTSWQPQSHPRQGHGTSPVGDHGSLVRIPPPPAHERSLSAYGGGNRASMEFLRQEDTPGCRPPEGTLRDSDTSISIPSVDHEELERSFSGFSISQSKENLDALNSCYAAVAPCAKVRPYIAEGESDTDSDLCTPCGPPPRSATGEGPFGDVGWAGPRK
Sequence of hKQT2 and hKQT3 (O43526 whole entry): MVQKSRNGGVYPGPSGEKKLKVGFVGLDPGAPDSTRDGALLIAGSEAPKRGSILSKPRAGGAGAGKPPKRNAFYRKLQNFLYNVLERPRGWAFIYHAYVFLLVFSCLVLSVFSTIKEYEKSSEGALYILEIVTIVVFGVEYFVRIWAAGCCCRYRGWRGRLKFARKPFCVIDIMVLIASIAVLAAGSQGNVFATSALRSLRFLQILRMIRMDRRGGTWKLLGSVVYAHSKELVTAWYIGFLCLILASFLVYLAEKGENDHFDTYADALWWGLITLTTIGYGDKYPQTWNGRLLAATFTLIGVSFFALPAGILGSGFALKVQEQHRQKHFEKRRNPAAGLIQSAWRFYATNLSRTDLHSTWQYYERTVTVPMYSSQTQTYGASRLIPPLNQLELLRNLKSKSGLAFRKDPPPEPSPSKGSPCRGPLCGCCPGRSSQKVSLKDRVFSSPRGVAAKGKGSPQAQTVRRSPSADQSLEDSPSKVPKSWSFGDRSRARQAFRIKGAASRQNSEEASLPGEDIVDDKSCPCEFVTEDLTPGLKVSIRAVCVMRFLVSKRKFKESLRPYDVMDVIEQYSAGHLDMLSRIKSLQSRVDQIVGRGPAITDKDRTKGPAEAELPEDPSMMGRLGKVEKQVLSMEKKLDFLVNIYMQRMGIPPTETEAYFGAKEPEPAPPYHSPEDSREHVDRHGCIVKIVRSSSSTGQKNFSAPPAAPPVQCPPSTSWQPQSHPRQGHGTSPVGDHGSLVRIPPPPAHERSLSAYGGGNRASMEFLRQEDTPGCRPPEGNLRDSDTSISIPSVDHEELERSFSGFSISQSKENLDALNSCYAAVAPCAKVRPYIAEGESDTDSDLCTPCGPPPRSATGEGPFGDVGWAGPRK
Sequence of hKQT2 and hKQT3 (O43525 whole entry): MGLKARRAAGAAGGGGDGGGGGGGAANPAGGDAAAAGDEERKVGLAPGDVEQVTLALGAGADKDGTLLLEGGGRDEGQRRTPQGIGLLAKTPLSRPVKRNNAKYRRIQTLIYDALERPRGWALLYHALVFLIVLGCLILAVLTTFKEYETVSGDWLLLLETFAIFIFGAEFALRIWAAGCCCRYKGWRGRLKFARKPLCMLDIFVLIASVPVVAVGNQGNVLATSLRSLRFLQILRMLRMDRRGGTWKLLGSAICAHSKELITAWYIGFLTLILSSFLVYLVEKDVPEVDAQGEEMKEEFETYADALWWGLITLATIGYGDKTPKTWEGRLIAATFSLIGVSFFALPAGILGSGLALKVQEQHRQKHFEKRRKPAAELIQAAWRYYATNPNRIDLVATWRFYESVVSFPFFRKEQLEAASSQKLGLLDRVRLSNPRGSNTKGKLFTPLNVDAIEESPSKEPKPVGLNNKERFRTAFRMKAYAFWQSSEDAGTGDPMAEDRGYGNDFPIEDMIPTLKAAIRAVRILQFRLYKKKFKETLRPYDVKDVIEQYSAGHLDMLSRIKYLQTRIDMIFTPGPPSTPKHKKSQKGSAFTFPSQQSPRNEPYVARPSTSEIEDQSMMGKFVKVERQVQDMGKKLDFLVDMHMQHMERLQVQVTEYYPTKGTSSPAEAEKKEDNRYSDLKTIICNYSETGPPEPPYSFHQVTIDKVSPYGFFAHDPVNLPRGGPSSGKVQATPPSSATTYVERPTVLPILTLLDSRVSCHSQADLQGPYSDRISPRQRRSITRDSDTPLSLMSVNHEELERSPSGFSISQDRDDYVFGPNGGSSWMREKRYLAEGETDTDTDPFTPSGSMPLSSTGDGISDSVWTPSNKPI

For `CC[N+](CC)(CC)CC.[Cl-]` [TEA, tetraethylammonium chloride], the “effect on Aβ-mediated toxicity” value in the assay on SN56 cells is reported as “block Aβ-mediated toxicity”. Also, in assay [1] (apoptosis induced by serum deprivation or staurosporine, attenuating outward K+ current), the “effect on apoptosis of mouse neocortical neurons” value is “reduced apoptosis”. Besides, the “block of hKQT2/hKQT3 current” value on hKQT2 and hKQT3 is “block by TEA”. In assay [2], this molecule displayed an IC50 of 130 µM. For the same molecule, in assay [2] (Hill fit to mean data points, FIG. 12D), the “slope factor of Hill fit, inhibition of SEQ ID NO:3 subunit” value was 0.59. The “block of voltage-gated outward currents” value in assay [2] (externally applied, mammalian cells transfected with SEQ ID NO:2, FIG. 12D) was “blocked potently”.

Turning to `CC(C)[C@@H]1NC(=O)[C@H](C)OC(=O)[C@@H](C(C)C)NC(=O)[C@@H](C(C)C)OC(=O)[C@H](C(C)C)NC(=O)[C@H](C)OC(=O)[C@@H](C(C)C)NC(=O)[C@@H](C(C)C)OC(=O)[C@H](C(C)C)NC(=O)[C@H](C)OC(=O)[C@@H](C(C)C)NC(=O)[C@@H](C(C)C)OC1=O` [valinomycin], in assay [1] (20 nM, 24 to 48 hours), the “induction of neuronal apoptosis in cortical cultures” value is “induced typical neuronal apoptosis”. The “induction of apoptosis on exposure” value in assay [1] is “induced apoptosis”.

On to `[Ba+2].[Cl-].[Cl-]` [barium], for which the “blocking of hKvQT2 (SEQ ID NO:3) channel” value in assay [2] (channel expressed in mammalian cells, properties match M-current) is “blocking by barium”.

Turning to `CC1(C)Oc2ccc(C#N)cc2C(N2CCCC2=O)C1O` (centres unmarked) [cromakalim], in assay [1] (24 to 48 hours of exposure), the “induction of neuronal apoptosis” value is listed as “induced typical neuronal apoptosis”. In assay [1], the “induction of apoptosis on exposure” value is reported as “induced apoptosis”.
